The assay has as its system P. falciparum (NF54 or 3D7 strain). The assay can be described thus: Assay for P. falciparum proliferation in infected human blood cells (SYBR Green). The assay is classed as cell-based, Plasmodium falciparum. As to conditions: Plasmodium falciparum, 72 h, NF54 or 3D7 infected human erythrocytes, 72 hours, read-out: EC50 (nM), inhibitory efficacy in delaying P. falciparum proliferation in infected human blood cells. In outline:
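Infected erythrocytes (NF54 or 3D7; final 2.5% hematocrit, 0.3% parasitemia) were incubated with compounds for 72 h at 37 °C in low oxygen (3% O2, 4% CO2, 93% N2).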

Where [1] appears, read: 3D7|NF54, Erythrocyte, in Homo sapiens.

Where two headings read alike, the source gives them in different places.

Take `CN(C(=O)c1cn2c(-c3ccc(N)cc3)cnc2cn1)c1ccc(C#N)cc1` [Compound 124, 3-(4-aminophenyl)-N-(4-cyanophenyl)-N-methylimidazo[1,2-a]pyrazine-6-carboxamide]: for the setting “Erythrocyte”, the EC50 is 217 nM.

Turning to `CN(C(=O)c1cn2c(-c3ccc(-c4ccco4)cc3)cnc2cn1)c1ccc(C#N)cc1` [Compound 125, N-(4-cyanophenyl)-3-[4-(furan-2-yl)phenyl]-N-methylimidazo[1,2-a]pyrazine-6-carboxamide], where the note is “Erythrocyte”, the EC50 came out at 369 nM.

For the molecule `CN(C(=O)c1cn2c(-c3ccc(C(F)(F)F)cc3)cnc2cn1)c1ccc(C#N)c(F)c1` [Compound 126, N-(4-cyano-3-fluorophenyl)-N-methyl-3-[4-(trifluoromethyl)phenyl]imidazo[1,2-a]pyrazine-6-carboxamide], the EC50 (Erythrocyte) was found to be 125 nM.

`CN(C(=O)c1cn2c(-c3ccc4c(ccn4C)c3)cnc2cn1)c1ccc(F)c(F)c1` [Compound 127, N-(3,4-difluorophenyl)-N-methyl-3-(1-methyl-1H-indol-5-yl)imidazo[1,2-a]pyrazine-6-carboxamide]: the EC50 (Erythrocyte) stood at 236 nM.

On to `CS(=O)(=O)c1ccc(NC(=O)c2cn3c(-c4ccc(C(F)(F)F)cc4)cnc3cn2)cc1` [Compound 128, N-(4-methanesulfonylphenyl)-3-[4-(trifluoromethyl)phenyl]imidazo[1,2-a]pyrazine-6-carboxamide], for which, under “Erythrocyte”, the EC50 was above 10000 nM.

For the molecule `CN(C(=O)c1cn2c(-c3ccc(S(C)(=O)=O)cc3)cnc2cn1)c1ccc(C#N)cc1` [Compound 129, N-(4-cyanophenyl)-3-(4-methanesulfonylphenyl)-N-methylimidazo[1,2-a]pyrazine-6-carboxamide], where the note is “Erythrocyte”, the EC50 is 800 nM.

For `COC(C)c1ccc(-c2cnc3cnc(C(=O)N(C)c4ccc(C#N)cc4)cn23)cc1` (centres unmarked) [Compound 130, N-(4-cyanophenyl)-3-[4-(1-methoxyethyl)phenyl]-N-methylimidazo[1,2-a]pyrazine-6-carboxamide], for the setting “Erythrocyte”, the EC50 turned out to be 176 nM.

As for `CN(C(=O)c1cn2c(-c3ccc(-c4ccn[nH]4)cc3)cnc2cn1)c1ccc(S(C)(=O)=O)cc1` [Compound 131, N-(4-methanesulfonylphenyl)-N-methyl-3-[4-(1H-pyrazol-5-yl)phenyl]imidazo[1,2-a]pyrazine-6-carboxamide], the EC50 (Erythrocyte) was found to be 140 nM.

As to `CN(C(=O)c1cn2c(-c3ccc(Cl)cc3)cnc2cn1)c1ccc(C#N)cc1` [Compound 132, 3-(4-chlorophenyl)-N-(4-cyanophenyl)-N-methylimidazo[1,2-a]pyrazine-6-carboxamide], the EC50 (Erythrocyte) amounted to 206 nM.

For the molecule `N#Cc1ccc(N(CCC2CCOCC2)C(=O)c2cn3c(-c4ccc(C(F)(F)F)cc4)cnc3cn2)cc1` [Compound 133, N-(4-cyanophenyl)-N-[2-(oxan-4-yl)ethyl]-3-[4-(trifluoromethyl)phenyl]imidazo[1,2-a]pyrazine-6-carboxamide], the EC50 (Erythrocyte) is 338 nM.

Take `CC(=O)c1ccc(-c2cnc3cnc(C(=O)N(C)c4ccc(C#N)cc4)cn23)cc1` [Compound 134, 3-(4-acetylphenyl)-N-(4-cyanophenyl)-N-methylimidazo[1,2-a]pyrazine-6-carboxamide]: the EC50 (Erythrocyte) is 490 nM.

Take `Cc1ccc(-c2cnc3cnc(C(=O)N(C)c4ccc(F)c(F)c4)cn23)cc1` [Compound 135, N-(3,4-difluorophenyl)-N-methyl-3-(4-methylphenyl)imidazo[1,2-a]pyrazine-6-carboxamide]: the EC50 (Erythrocyte) was 81 nM.

Regarding `CN(C(=O)c1cn2c(-c3ccc4c(ccn4C)c3)cnc2cn1)c1ccc(F)cc1` [Compound 136, N-(4-fluorophenyl)-N-methyl-3-(1-methyl-1H-indol-5-yl)imidazo[1,2-a]pyrazine-6-carboxamide], the EC50 (Erythrocyte) was found to be 320 nM.

Turning to `CN(C(=O)c1cn2c(-c3ccc(C(F)(F)F)cc3)cnc2cn1)c1cccc(F)c1` [Compound 137, N-(3-fluorophenyl)-N-methyl-3-[4-(trifluoromethyl)phenyl]imidazo[1,2-a]pyrazine-6-carboxamide], for the setting “Erythrocyte”, the EC50 was determined as 226 nM.

Take `CN(C(=O)c1cn2c(-c3ccc(OCC(F)(F)F)cc3)cnc2cn1)c1ccc(C#N)cc1` [Compound 138, N-(4-cyanophenyl)-N-methyl-3-[4-(2,2,2-trifluoroethoxy)phenyl]imidazo[1,2-a]pyrazine-6-carboxamide]: the EC50 (Erythrocyte) is 849 nM.

Turning to `COc1ccc(N(C)C(=O)c2cn3c(-c4ccc(C(F)(F)F)cc4)cnc3cn2)cc1` [Compound 139, N-(4-methoxyphenyl)-N-methyl-3-[4-(trifluoromethyl)phenyl]imidazo[1,2-a]pyrazine-6-carboxamide], the EC50 (Erythrocyte) stood at 1160 nM.

Turning to `CN(C(=O)c1cn2c(-c3ccc(C(F)(F)F)cc3F)cnc2cn1)c1ccc(C#N)cc1` [Compound 140, N-(4-cyanophenyl)-3-[2-fluoro-4-(trifluoromethyl)phenyl]-N-methylimidazo[1,2-a]pyrazine-6-carboxamide], the EC50 (Erythrocyte) was found to be 436 nM.

As for `CN(C(=O)c1cn2c(-c3ccc4c(ccn4C)c3)cnc2cn1)c1ccc(Cl)cc1` [Compound 141, N-(4-chlorophenyl)-N-methyl-3-(1-methyl-1H-indol-5-yl)imidazo[1,2-a]pyrazine-6-carboxamide], the EC50 (Erythrocyte) came out at 433 nM.

For the molecule `CN(C(=O)c1cn2c(-c3ccc(OC(F)F)cc3)cnc2cn1)c1ccc(F)c(F)c1` [Compound 142, 3-[4-(difluoromethoxy)phenyl]-N-(3,4-difluorophenyl)-N-methylimidazo[1,2-a]pyrazine-6-carboxamide], under “Erythrocyte”, the EC50 amounted to 202 nM.

As for `CN(C(=O)c1cn2c(-c3ccc4[nH]cnc4c3)cnc2cn1)c1ccc(C#N)cc1` [Compound 143, 3-(1H-1,3-benzodiazol-5-yl)-N-(4-cyanophenyl)-N-methylimidazo[1,2-a]pyrazine-6-carboxamide], for the setting “Erythrocyte”, the EC50 was 1560 nM.

For the molecule `CN(C(=O)c1cn2c(-c3ccc(-n4cccn4)cc3)cnc2cn1)c1ccc(F)c(F)c1` [Compound 144, N-(3,4-difluorophenyl)-N-methyl-3-[4-(1H-pyrazol-1-yl)phenyl]imidazo[1,2-a]pyrazine-6-carboxamide], the EC50 (Erythrocyte) was 366 nM.

Take `CN(C(=O)c1cn2c(-c3ccc4[nH]ncc4c3)cnc2cn1)c1ccc(C#N)cc1` [Compound 145, N-(4-cyanophenyl)-3-(1H-indazol-5-yl)-N-methylimidazo[1,2-a]pyrazine-6-carboxamide]: the EC50 (Erythrocyte) was determined as 648 nM.

Take `CN(C(=O)c1cn2c(-c3ccc(-n4ccnc4)cc3)cnc2cn1)c1ccc(C#N)cc1` [Compound 146]: under setting [1], the EC50 was 462 nM.

As to `CN(C(=O)c1cn2c(-c3ccc(C(F)(F)F)cc3)cnc2cn1)c1ccc(C#N)nc1` [Compound 147, N-(6-cyanopyridin-3-yl)-N-methyl-3-[4-(trifluoromethyl)phenyl]imidazo[1,2-a]pyrazine-6-carboxamide], where the note is “Erythrocyte”, the EC50 is 564 nM.

Turning to `CN(C(=O)c1cn2c(-c3ccc(S(N)(=O)=O)cc3)cnc2cn1)c1ccc(C#N)cc1` [Compound 148], under setting [1], the EC50 was determined as 1360 nM.

For `CN(C(=O)c1cn2c(-c3ccc4nn(C)cc4c3)cnc2cn1)c1ccc(C#N)cc1` [Compound 149, N-(4-cyanophenyl)-N-methyl-3-(2-methyl-2H-indazol-5-yl)imidazo[1,2-a]pyrazine-6-carboxamide], where the note is “Erythrocyte”, the EC50 worked out at 1520 nM.

As for `Cc1cc(C(F)(F)F)ccc1-c1cnc2cnc(C(=O)N(C)c3ccc(C#N)cc3)cn12` [Compound 150, N-(4-cyanophenyl)-N-methyl-3-[2-methyl-4-(trifluoromethyl)phenyl]imidazo[1,2-a]pyrazine-6-carboxamide], under “Erythrocyte”, the EC50 was determined as 3590 nM.

Regarding `CN(C(=O)c1cn2c(-c3ccc(-n4cccn4)cc3)cnc2cn1)c1ccc(F)cc1` [Compound 151, N-(4-fluorophenyl)-N-methyl-3-[4-(1H-pyrazol-1-yl)phenyl]imidazo[1,2-a]pyrazine-6-carboxamide], where the note is “Erythrocyte”, the EC50 stood at 673 nM.

`CC(C)S(=O)(=O)c1ccc(-c2cnc3cnc(C(=O)N(C)c4ccc(C#N)cc4)cn23)cc1` [Compound 152, N-(4-cyanophenyl)-N-methyl-3-[4-(propane-2-sulfonyl)phenyl]imidazo[1,2-a]pyrazine-6-carboxamide]: the EC50 (Erythrocyte) is 3170 nM.

`CN(C(=O)c1cn2c(-c3ccc(F)cc3)cnc2cn1)c1ccc(C#N)cc1` [Compound 153, N-(4-cyanophenyl)-3-(4-fluorophenyl)-N-methylimidazo[1,2-a]pyrazine-6-carboxamide]: the EC50 (Erythrocyte) stood at 2060 nM.

Turning to `CN(C(=O)c1cn2c(-c3ccc4cn[nH]c4c3)cnc2cn1)c1ccc(C#N)cc1` [Compound 154, N-(4-cyanophenyl)-3-(1H-indazol-6-yl)-N-methylimidazo[1,2-a]pyrazine-6-carboxamide], the EC50 (Erythrocyte) is 2690 nM.

As to `CN(C(=O)c1cn2c(-c3ccc(Cl)c(C#N)c3)cnc2cn1)c1ccc(C#N)cc1` [Compound 155, 3-(4-chloro-3-cyanophenyl)-N-(4-cyanophenyl)-N-methylimidazo[1,2-a]pyrazine-6-carboxamide], the EC50 (Erythrocyte) was found to be 2390 nM.

In the case of `CC(C)c1nc(-c2cnc3cnc(C(=O)N(C)c4ccc(C#N)cc4)cn23)cs1` [Compound 156, N-(4-cyanophenyl)-N-methyl-3-[2-(propan-2-yl)-1,3-thiazol-4-yl]imidazo[1,2-a]pyrazine-6-carboxamide], the EC50 (Erythrocyte) is 391 nM.

In the case of `CN(C(=O)c1cn2c(-c3ccc4ncccc4c3)cnc2cn1)c1ccc(C#N)cc1` [Compound 157, N-(4-cyanophenyl)-N-methyl-3-(quinolin-6-yl)imidazo[1,2-a]pyrazine-6-carboxamide], for the setting “Erythrocyte”, the EC50 was 2010 nM.

Consider `CN(C(=O)c1cn2c(-c3ccc(C(=O)NC4CC4)cc3)cnc2cn1)c1ccc(C#N)cc1` [Compound 158, N-(4-cyanophenyl)-3-[4-(cyclopropylcarbamoyl)phenyl]-N-methylimidazo[1,2-a]pyrazine-6-carboxamide], for which, where the note is “Erythrocyte”, the EC50 was 2050 nM.
